From publication PMC6774960, “Design, synthesis and biological evaluation of a series of new resveratrol analogues as potential anti-cancer agents” (Royal Society Open Science, 2019) come the findings set out here.

Data set [1] has as its system HepG2 cells. In words: Cell cycle assay by flow cytometry. The following applies: 24 h, mean ± s.d. The class given is cell-based, human. The procedure:
To evaluate the effects of compound r on cell cycle progression of HepG2, cells were treated with compound r at different concentrations (0, 5, 15 and 45 µM) for 24 h and then examined by flow cytometry. The accumulation of cells in S phase increased with increasing concentration of compound r. Approximately 18.36 ± 1.93%, 19.39 ± 2.06%, 29.9 ± 0.87% and 34.24 ± 1.00% of cells were arrested in S phase in response to 0, 5, 15 and 45 µM compound r, respectively. In comparison, 39.56 ± 0.97% cells were arrested in S phase after treatment with 20 µM cisplatin for 24 h.
Figure 5. Cells treated with 0, 5, 15 and 45 µM compound r for 24 h were collected and analysed by flow cytometry. Images were representative of three independent experiments. Values represented the mean ± s.d.; versus blank, *p < 0.01, **p < 0.001; versus control ^#p < 0.01, ^##p < 0.001.
Cells were treated with compound r (0, 5, 15, 45 µM) or 20 µM of cisplatin as the control for 24 h. Cells were collected by centrifugation (1000 rpm, 5 min), washed with PBS and fixed with 70% ice-cold ethanol overnight at 4°C. The cell cycle was examined on a flow cytometer using a cell cycle analysis kit (Beyotime Biotechnologyin, China) in accordance with the manufacturer's instructions.
On the technique in general: In flow cytometry, cells or beads pass a laser one at a time.

Data set [2] can be described thus: MTT cytotoxicity test, LO2. The class given is cell-based, human. The following applies: human, LO2 cells (normal human hepatocytes), average of three determinations. The procedure: (§1) Vero cells are non-tumorigenic cell lines and are important raw materials as the research and production of biological products. Vero cells show low tumorigenicity and had been approved for use in the production of human virus vaccines. Thus, Vero cells were chosen as a control for cytotoxicity. All compounds were evaluated for their cell toxicity against Vero and normal human hepatocytes cells line (LO2) using MTT assays.
(§2) The anti-proliferative and cytotoxicity activity was determined using MTT assay. Human cervical carcinoma HeLa cells, human hepatocellular carcinoma HepG2 cells, human lung carcinoma A549 cells were representative in the anti-proliferation assay, which were obtained from the Shanghai Institute of Cell Biology (Shanghai, China). Normal African green monkey kidney Vero cells were a gift from Dr Xiumiao He at Guangxi University for Nationalities. Normal human hepatocytes LO2 cells were a gift from Dr Xing Lin at Guangxi Medical University. The HepG2, Hela, LO2 and Vero cells were cultured in Dulbecco's modified Eagle's medium (DMEM, Gibco) and the A549 cells were cultured in RPMI1640 (Gibco), both media were supplemented with 10% fetal calf serum and antibiotics (100 IU ml^−1 penicillin, 100 IU ml^−1 streptomycin; Amresco).
(§3) Cells were seeded in 96-well microtiter plates at a density of 1 × 10^4 cells well^−1 and incubated with different concentrations of compound (6.25, 12.50, 25.00, 50.00 to 100.00 µM), cisplatin and paclitaxel in RPMI-1640 or DMEM at 37°C with 5% CO2. After 24 h, cell morphology was observed using a light microscope, and then 20 µl of MTT solution (5 mg ml^−1) was added to the well and incubated for 4 h, then cell survival was determined by measuring the optical density (OD) absorbance at a wavelength of 570 nm using an ELISA microplate reader. The inhibition rate (IR) following each compound treatment was determined by the following equation: IR (%) = (1 − ODexp/ODcon) × 100%, where ODexp and ODcon are the OD of the treated and untreated cells, respectively. Cisplatin and paclitaxel were used as positive control drugs.

The test system of another data set is β-tubulin in HepG2 cells. In words: Immunofluorescence microscopy assay of β-tubulin. The class given is cell-based, human. The note with it: 24 h. The procedure: Resveratrol was previously reported to hamper microtubule function. To examine whether the anti-proliferative activity of compound r, a resveratrol derivative, was related to an interaction with tubulin, we examined β-tubulin in HepG2 cells treated with compound r and by immunofluorescence assay. Compound r ranging from 5 to 45 µM inhibited β-tubulin for 24 h (figure 3). […] In addition, after incubation with compound r (5, 15 and 45 µM), many cells became multinucleated. These phenomena were consistent with those observed with other microtubule-targeted drugs.
Figure 3. Compound r promoted microtubule depolymerization in HepG2 cells. The HepG2 cells were treated with 0, 5, 15 or 45 µM compound r for 24 h, microtubule networks and nuclei were observed by immunofluorescence microscopy assay.
HepG2 cells were cultured in DMEM supplemented with 10% fetal bovine serum on coverslips in 6-well plates and allowed to adhere for at least 12 h. Cells were then incubated in the presence or absence of compound r (0, 5, 15, 45 µM) for 24 h. Control cells were incubated with vehicle alone. […] Cell nuclei were stained with 4,6-diamidino-2-phenylindole (DAPI) and then images were obtained with a fluorescence microscope equipped with a motorized image capture system. […]

Data set [3] concerns HepG2 cells. In words: Morphologic observation by light microscope. In kind it is cell-based, human. The note with it: HepG2, 15 and 45 µM, 24 h. The procedure:
Morphological observations can directly reflect the effects of drugs on cells. HepG2 cells were cultured with increasing concentrations of compound r (0, 5, 15 and 45 µM) for 24 h and observed using a light microscope. The cell morphology was clearly altered with the increase in drug concentration (figure 2).
Figure 2. Effect of compound r on the microscopic examination of HepG2 cells. Morphology of HepG2 treated with compound r (0, 5, 15 and 45 µM) and cisplatin (20 µM) for 24 h. Light microscopy photographs, with 40× objective.
as §3

Data set [4] deals with HepG2 cells. In words: MTT anti-proliferation assay, HepG2. In kind it is cell-based, human. The following applies: average of three determinations. The procedure: (§4) The 22 synthesized resveratrol compounds were evaluated for anti-proliferative activities against three human cancer cell lines, including HepG2, A549 and HeLa cells, using 3-[4,5-dimethylthiazol-2-yl]-2,5 diphenyl tetrazolium bromide (MTT) assays. Paclitaxel, a well-known tubulin inhibitor, was used as a positive control. […] Therefore, the inhibitory activity of the compounds depended not only on the 2-position substitution of acrylic acid, but also on the 3-position substitution of acrylic acid.
as §2, §3

A short description of data set [5]: MTT cytotoxicity test, Vero. The class given is cell-based, African green monkey. The note with it: African green monkey, Vero cells (normal African green monkey kidney), average of three determinations. The procedure:
as §1, §2, §3
In general terms: Tetrazolium assays rely on reduction of a dye to a coloured formazan, in cell work by metabolically active cells.

Another data set relates to A549 cells. In words: MTT anti-proliferation assay, A549. In kind it is cell-based, human. The note with it: average of three determinations. As to the method:
as §4, §2, §3

The structures appear in SMILES notation. Where only a bound is given, the exact number is not on record here.

`COc1ccc(C(=Cc2cc(C(F)(F)F)ccc2Cl)C(=O)O)cc1` [compound r, 3-(2-chloro-5-(trifluoromethyl)phenyl)-2-(4-methoxyphenyl) acrylic acid]: the “cells arrested in S phase” value was approximately 19.39 ± 2.06% in the data set on HepG2 cells [1] (HepG2, 5 µM); approximately 29.9 ± 0.87% with HepG2 cells [1] (HepG2, 15 µM); approximately 34.24 ± 1.00% in the data set on HepG2 cells [1] (HepG2, 45 µM). Besides, the results for the CC50 at 24 h in data set [2] and in data set [5] were more than 100 µM and 84 ± 3 µM, respectively. The “microtubule network / cytoskeleton appearance” value with β-tubulin in HepG2 cells (HepG2, 45 µM) is recorded as “microtubules appeared depolymerized”; with β-tubulin in HepG2 cells (HepG2, 5 and 15 µM) it was “highly abnormal cytoskeleton”. For the same compound, the cell morphology entry with HepG2 cells [3] was “shrinkage, rounding and detachment from the plate surface”. For the same compound, the IC50 was 7 ± 1 µM in the data set with HepG2 cells [4] (24 h); 7.49 µM with HepG2 cells [4] (Homo sapiens, HepG2, 24 h); 3.8 ± 0.3 µM with A549 cells (24 h); 3.77 µM with A549 cells (Homo sapiens, A549, 24 h).

What is called CC50 is the concentration that lowers cell viability or growth by half. In general, IC50 refers to the point on the concentration scale where inhibition reaches its midpoint.
